Measurements: ChEMBL document CHEMBL5053557, “Discovery of Novel Dual-Target Inhibitor of Bromodomain-Containing Protein 4/Casein Kinase 2 Inducing Apoptosis and Autophagy-Associated Cell Death for Triple-Negative Breast Cancer Therapy” (J Med Chem, 2021)
The source made the active and inactive calls. The calls are words filed in the database; no cut-off is given here.

What was measured:
[1] = biological target: T1, Bromodomain-containing protein 2 (Homo sapiens, UniProt P25440); experiment: Inhibition of BRD2 BD1 (unknown origin) incubated for 2 hrs by TR-FRET assay
[2] = biological target: T1, Bromodomain-containing protein 2; experiment: Inhibition of BRD2 BD2 (unknown origin) incubated for 2 hrs by TR-FRET assay
[3] = biological target: Bromodomain-containing protein 3 (Homo sapiens, UniProt Q15059); experiment: Inhibition of BRD3 BD1 (unknown origin) incubated for 2 hrs by TR-FRET assay
[4] = biological target: Bromodomain-containing protein 4 (Homo sapiens, UniProt O60885); experiment: Inhibition of BRD4 BD2 (unknown origin) incubated for 2 hrs by TR-FRET assay
[5] = biological target: Bromodomain testis-specific protein (Homo sapiens, UniProt Q58F21); experiment: Inhibition of BRDT BD1 (unknown origin) incubated for 2 hrs by TR-FRET assay
MCF-10A = experiment: Antiproliferative activity against human MCF-10A cells incubated for 24 hrs by MTT assay; format: cell-based
MDA-MB-231 [6] = experiment: Inhibition of colony formation in human MDA-MB-231 cells after 7 days by crystal violet staining based assay; format: functional, cell-based; conditions: dose 2.5-10 µM, time 7.0 day
MDA-MB-231 [7] = experiment: Induction of apoptosis in human MDA-MB-231 cells after 24 hrs by Hoechst 33258 staining fluorescence microscopic analysis; format: functional, cell-based; conditions: dose 2.5-10 µM
MDA-MB-468 [8] = experiment: Induction of autophagy in human MDA-MB-468 cells harboring GFP-mRFP-LC3 assessed as autophagic flux at 5 uM after 24 hrs by fluorescence microscopic analysis; format: functional, cell-based
MDA-MB-231 [9] = experiment: Induction of autophagy in human MDA-MB-231 cells harboring GFP-mRFP-LC3 assessed as down regulation of p62 level at 5 uM after 24 hrs by Western blot analysis; format: functional, cell-based
MDA-MB-231 [10] = experiment: Induction of autophagy in human MDA-MB-231 cells harboring GFP-mRFP-LC3 assessed as up regulation of beclin 1 level at 2.5 to 10 uM after 24 hrs by Western blot analysis; format: functional, cell-based; conditions: dose 2.5-10 µM
MDA-MB-468 [11] = experiment: Induction of autophagy in human MDA-MB-468 cells harboring GFP-mRFP-LC3 assessed as up regulation of beclin 1 level at 2.5 to 10 uM after 24 hrs by Western blot analysis; format: functional, cell-based; conditions: dose 2.5-10 µM
MDA-MB-468 [12] = experiment: Inhibition of colony formation in human MDA-MB-468 cells at 5 uM after 7 days in presence of 3-MA by crystal violet staining based assay; format: functional, cell-based; conditions: time 7.0 day
MDA-MB-231 [13] = experiment: Induction of apoptosis in human MDA-MB-231 cells at 5 uM preincubated with 3-MA for 1 hr followed by compound addition and measured after 24 hrs by Annexin V-FITC/propidium iodide staining based flow cytometric analysis; format: functional, cell-based
MDA-MB-468 [14] = experiment: Induction of apoptosis in human MDA-MB-468 cells at 5 uM preincubated with 3-MA for 1 hr followed by compound addition and measured after 24 hrs by Annexin V-FITC/propidium iodide staining based flow cytometric analysis; format: functional, cell-based
[15] = Half life in Sprague-Dawley rat at 10 mg/kg, po by LC-MS analysis; format: ADME, organism-based; conditions: in vivo
[16] = Cmax in Sprague-Dawley rat at 1 mg/kg, iv by LC-MS analysis; format: ADME, organism-based; parameters: dose 1 mg/kg, route iv; conditions: in vivo
[17] = AUC(0 to t) in Sprague-Dawley rat at 1 mg/kg, iv by LC-MS analysis; format: ADME, organism-based; parameters: dose 1 mg/kg, route iv; conditions: in vivo
[18] = AUC(0 to t) in Sprague-Dawley rat at 10 mg/kg, po by LC-MS analysis; format: ADME, organism-based; parameters: dose 10 mg/kg, route po; conditions: in vivo
[19] = AUC(0 to infinity) in Sprague-Dawley rat at 1 mg/kg, iv by LC-MS analysis; format: ADME, organism-based; parameters: time infinity, dose 1 mg/kg, route iv; conditions: in vivo
[20] = AUC(0 to infinity) in Sprague-Dawley rat at 10 mg/kg, po by LC-MS analysis; format: ADME, organism-based; parameters: time infinity, dose 10 mg/kg, route po; conditions: in vivo
[21] = Apparent volume of distribution in Sprague-Dawley rat at 1 mg/kg, iv by LC-MS analysis; format: ADME, organism-based; conditions: in vivo, read-out: Vz
[22] = Oral bioavailability in Sprague-Dawley rat at 10 mg/kg by LC-MS analysis; format: ADME, organism-based; conditions: in vivo
MDA-MB-468 [23] = experiment: Antitumor activity against human MDA-MB-468 cells xenografted in po dosed nude BALB/c mouse assessed as tumor growth inhibition administered once daily for 19 days and measured every 3 days; format: functional, organism-based; conditions: dose lower […], dose upper 50.0 mg/kg, time 19.0 day
Mus musculus [24] = experiment: Toxicity in nude BALB/c mouse xenografted with human MDA-MB-231 cells assessed as change in body weight at 25 to 50 mg/kg, po administered once daily for 19 days and measured every 3 days; format: organism-based; conditions: in vivo, 456 h, dose 25-50 mg/kg, time 19 day
Mus musculus [25] = experiment: Toxicity in nude BALB/c mouse xenografted with human MDA-MB-231 cells assessed as mortality at 25 to 50 mg/kg, po administered once daily for 19 days and measured every 3 days; format: organism-based; conditions: in vivo, 456 h, dose 25-50 mg/kg, time 19 day
Mus musculus [26] = experiment: Toxicity in nude BALB/c mouse xenografted with human MDA-MB-468 cells assessed as change in body weight at 25 to 50 mg/kg, po administered once daily for 19 days and measured every 3 days; format: organism-based; conditions: in vivo, 456 h, dose 25-50 mg/kg, time 19 day
Mus musculus [27] = experiment: Toxicity in nude BALB/c mouse xenografted with human MDA-MB-468 cells assessed as mortality at 25 to 50 mg/kg, po administered once daily for 19 days and measured every 3 days; format: organism-based; conditions: in vivo, 456 h, dose 25-50 mg/kg, time 19 day
Mus musculus [28] = experiment: Toxicity in nude BALB/c mouse xenografted with human MDA-MB-468 cells assessed as morphological changes in spleen at 25 to 50 mg/kg, po administered once daily for 19 days and measured every 3 days by H and E staining based assay; format: organism-based; conditions: in vivo, 456 h, dose 25-50 mg/kg, time 19 day
Mus musculus [29] = experiment: Toxicity in nude BALB/c mouse xenografted with human MDA-MB-231 cells assessed as morphological changes in liver at 25 to 50 mg/kg, po administered once daily for 19 days and measured every 3 days by H and E staining based assay; format: organism-based; conditions: in vivo, 456 h, dose 25-50 mg/kg, time 19 day
Mus musculus [30] = experiment: Toxicity in nude BALB/c mouse xenografted with human MDA-MB-231 cells assessed as morphological changes in heart at 25 to 50 mg/kg, po administered once daily for 19 days and measured every 3 days by H and E staining based assay; format: organism-based; conditions: in vivo, 456 h, dose 25-50 mg/kg, time 19 day
Mus musculus [31] = experiment: Toxicity in nude BALB/c mouse xenografted with human MDA-MB-231 cells assessed as morphological changes in spleen at 25 to 50 mg/kg, po administered once daily for 19 days and measured every 3 days by H and E staining based assay; format: organism-based; conditions: in vivo, 456 h, dose 25-50 mg/kg, time 19 day
Mus musculus [32] = experiment: Toxicity in nude BALB/c mouse xenografted with human MDA-MB-231 cells assessed as morphological changes in lung at 25 to 50 mg/kg, po administered once daily for 19 days and measured every 3 days by H and E staining based assay; format: organism-based; conditions: in vivo, 456 h, dose 25-50 mg/kg, time 19 day
MDA-MB-231 [33] = experiment: Induction of autophagy in human MDA-MB-231 cells xenografted in nude BALB/c mouse assessed as increase in LC3II expression at 25 to 50 mg/kg, po administered once daily for 19 days by immunohistochemistry analysis; format: functional, organism-based; conditions: dose lower […], dose upper 50.0 mg/kg, time 19.0 day
Mus musculus [34] = experiment: Down regulation of phosphorylation of AKT at S129 residue expression in BALB/c SCID mouse xenogrfted with human MDA-MB-231 cells at 25 to 50 mg/kg, po administered once daily for 19 days by Western blot analysis; format: functional, organism-based; conditions: dose lower […], dose upper 50.0 mg/kg, time 19.0 day

T1 sequence (P25440 whole entry): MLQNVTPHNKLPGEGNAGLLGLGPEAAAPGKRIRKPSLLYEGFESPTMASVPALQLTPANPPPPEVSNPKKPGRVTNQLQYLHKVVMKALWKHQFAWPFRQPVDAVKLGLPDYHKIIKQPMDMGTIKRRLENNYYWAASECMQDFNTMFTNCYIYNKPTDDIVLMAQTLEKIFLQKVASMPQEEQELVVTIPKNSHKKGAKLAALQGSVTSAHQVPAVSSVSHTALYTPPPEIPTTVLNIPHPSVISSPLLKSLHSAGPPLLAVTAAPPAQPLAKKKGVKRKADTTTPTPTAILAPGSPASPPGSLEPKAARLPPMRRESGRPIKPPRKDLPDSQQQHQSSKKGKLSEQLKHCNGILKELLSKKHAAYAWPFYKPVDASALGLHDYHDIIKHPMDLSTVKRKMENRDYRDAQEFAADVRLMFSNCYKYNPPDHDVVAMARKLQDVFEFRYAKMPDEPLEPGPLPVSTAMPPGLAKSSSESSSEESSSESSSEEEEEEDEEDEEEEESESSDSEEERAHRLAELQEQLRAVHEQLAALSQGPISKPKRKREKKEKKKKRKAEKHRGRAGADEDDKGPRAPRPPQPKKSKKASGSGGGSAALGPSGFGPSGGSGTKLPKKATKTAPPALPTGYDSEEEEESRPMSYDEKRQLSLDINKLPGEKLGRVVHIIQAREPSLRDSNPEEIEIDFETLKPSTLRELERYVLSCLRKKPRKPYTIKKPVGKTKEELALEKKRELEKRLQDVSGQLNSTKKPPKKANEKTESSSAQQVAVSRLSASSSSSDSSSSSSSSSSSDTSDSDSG
Chain of Bromodomain-containing protein 3 (Q15059 whole entry): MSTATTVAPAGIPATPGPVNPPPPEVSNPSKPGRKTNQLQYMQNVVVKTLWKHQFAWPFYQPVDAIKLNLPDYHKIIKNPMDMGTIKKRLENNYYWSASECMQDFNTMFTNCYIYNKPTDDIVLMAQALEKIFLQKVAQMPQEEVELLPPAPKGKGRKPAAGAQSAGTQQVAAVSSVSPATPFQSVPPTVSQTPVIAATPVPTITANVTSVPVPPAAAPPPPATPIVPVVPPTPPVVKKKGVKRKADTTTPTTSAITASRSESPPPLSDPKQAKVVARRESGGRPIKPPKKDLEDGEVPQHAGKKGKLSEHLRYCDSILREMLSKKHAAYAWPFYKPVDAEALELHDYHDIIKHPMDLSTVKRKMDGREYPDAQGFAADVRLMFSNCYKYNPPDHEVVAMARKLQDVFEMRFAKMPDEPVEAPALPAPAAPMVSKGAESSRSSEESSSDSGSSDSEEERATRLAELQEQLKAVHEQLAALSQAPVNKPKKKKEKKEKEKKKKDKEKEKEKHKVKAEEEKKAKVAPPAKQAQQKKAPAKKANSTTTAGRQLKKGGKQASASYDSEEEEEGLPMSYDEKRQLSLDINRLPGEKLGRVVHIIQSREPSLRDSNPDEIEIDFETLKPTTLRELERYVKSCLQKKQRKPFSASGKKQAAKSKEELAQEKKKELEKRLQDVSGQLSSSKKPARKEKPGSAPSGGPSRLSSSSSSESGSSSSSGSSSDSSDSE

Q: For `COc1cc(OC)c2c(=O)[nH]c(-c3ccc(OCC(=O)Nc4ccc(N5CCN(C)CC5)c(Cl)c4)cc3)nc2c1`, which IC50 [1] is on record?
A: > 10 µM

Q: What about the IC50 [2] of the same compound?
A: 8.7 µM

Q: What about the IC50 [3] of the same compound?
A: 9.2 µM

Q: What about the IC50 [4] of the same compound?
A: 0.098 µM

Q: And the IC50 [5]?
A: > 10 µM

Q: What about the Activity (MCF-10A) of the same compound?
A: Non-Toxic

Q: And the inhibition (MDA-MB-231 [6])?
A: Dose-dependent effect

Q: And the Activity (MDA-MB-231 [7])?
A: Dose-dependent effect

Q: What about the Activity (MDA-MB-468 [8]) of the same compound?
A: Active

Q: And the Activity (MDA-MB-231 [9])?
A: Active

Q: What about the Activity (MDA-MB-231 [10]) of the same compound?
A: Active

Q: What about the Activity (MDA-MB-468 [11]) of the same compound?
A: Active

Q: And the inhibition (MDA-MB-468 [12])?
A: inactive

Q: And the Activity (MDA-MB-231 [13])?
A: inactive

Q: What about the Activity (MDA-MB-468 [14]) of the same compound?
A: inactive

Q: And the half-life [15]?
A: 5.17 h

Q: And the Cmax [16]?
A: 237 ng/mL

Q: What about the AUC(0-t) [17] of the same compound?
A: 579 ng·h/mL

Q: What about the AUC(0-t) [18] of the same compound?
A: 2080 ng·h/mL

Q: And the AUC [19]?
A: 588 ng·h/mL

Q: And the AUC(0-inf) [20]?
A: 2090 ng·h/mL

Q: What about the Vd [21] of the same compound?
A: 21.1 L/kg

Q: What about the F [22] of the same compound?
A: 32.5%

Q: What about the Activity (MDA-MB-468 [23]) of the same compound?
A: Active

Q: What about the Activity (Mus musculus [24]) of the same compound?
A: Non-Toxic

Q: What about the Activity (Mus musculus [25]) of the same compound?
A: Non-Toxic

Q: And the Activity (Mus musculus [26])?
A: Non-Toxic

Q: And the Activity (Mus musculus [27])?
A: Non-Toxic

Q: What about the Activity (Mus musculus [28]) of the same compound?
A: Non-Toxic

Q: What about the Activity (Mus musculus [29]) of the same compound?
A: Non-Toxic

Q: And the Activity (Mus musculus [30])?
A: Non-Toxic

Q: And the Activity (Mus musculus [31])?
A: Non-Toxic

Q: And the Activity (Mus musculus [32])?
A: Non-Toxic

Q: What about the Activity (MDA-MB-231 [33]) of the same compound?
A: Active

Q: What about the Activity (Mus musculus [34]) of the same compound?
A: Active
